Experimental data: patent US20020061514A1, “Assay for identifying modulators of chondrogenesis” (priority 2000, published 2002)

What was measured:
Assay type in all cases: cell-based, mouse
[1] = system: pGL3(4X48) Sox9 responsive reporter gene; test: pGL3(4X48) luciferase reporter gene activity in transiently transfected primary limb mesenchymal cultures; conditions: for normalized RLU (pGL3(4X48) reporter gene activity): RLU values normalized to control reporter activity
From the text: (§1) To increase reporter gene sensitivity, the Sox9 responsive reporter gene from 4X48-p89 luciferase (14) was subcloned into pGL3-basic (Promega). A fragment containing the reiterated (4 X 48) Sox9 binding sequence upstream of the mouse col II minimal promoter (−89 to +13) was liberated from 4X48-p89 plasmid by digestion with Bam HI and Hind III. This fragment was subcloned into the Bgl II and […] sites of pGL3-basic (Promega) to generate pGL3(4X48). To generate an EGFP-based col II reporter, the luciferase gene within pGL3(4X48) was replaced with EGFP-N1 (Clontech). For expression of genes in primary cultures a modified version of pSG5 (Stratagene), pSG5HS, was used which contains two additional restriction endonuclease sites, Hind III and Spe I. The myogenin promoter-luciferase construct was made by subcloning a 1.14 kB fragment of the myogenin promoter (containing the region from pGZ1092) from plasmid pGBB into pGL3-basic. The cardiac actin promoter-luciferase vector was generated by subcloning a fragment of the cardiac actin promoter from −440 to +6 into pGL3-basic.
(§2) Limb mesenchymal cells were harvested from embryonic age 11.25-11.75 mouse embryos as previously described (19). To establish proximal or distal cultures the proximal half of each limb bud was separated from the distal half, and each pool of limb fragments was processed separately. The cells were resuspended at a density of 1.5−2×10^7 cells/ml. For transfection purposes, cells were mixed with a DNA/FuGene6 mixture in a 2:1 ratio. FuGene6-DNA mixtures were prepared according to the manufacturer's instructions (Roche Biomolecular). Briefly, 1 μg of reporter, 1 μg of expression vector and 0.05 μg of pRLSV40 (Promega) were mixed for a total of ˜2 μg DNA in 100 μl of media and FuGene6. Fifty microlitres of the DNA mixture was transferred into a sterile 1.5 ml eppendorf tube, followed by 100 μl of cells. Cells were gently triturated and 10 μl was used to seed a single well of a 24-well culture dish. After 1.5 hrs in a humidified CO2 incubator, 1 ml of media containing compounds of interest was added to each well and was subsequently replaced 24 hrs following transfection.
Analysis of reporter gene activity using the Dual Luciferase Assay System was done following the manufacturer's instructions (Promega). Briefly, ˜48 hrs post-transfection, cells were washed once with PBS and lysed in 100 μl of Passive Lysis Buffer for 20 min. Firefly and renilla luciferase activities were determined using 40 μl of lysate in a 96-well plate reading luminometer (Molecular Devices).

[2] = system: pGL3-4X48-EGFP reporter (Sox9 activity); test: pGL3(4X48)-EGFP reporter in primary limb mesenchymal cultures; conditions: 10 ng/ml, 64 hours post-transfection, vs untreated control cultures
From the text: as §1
Limb mesenchymal cells were harvested from embryonic age 11.25-11.75 mouse embryos as previously described (19). To establish proximal or distal cultures the proximal half of each limb bud was separated from the distal half, and each pool of limb fragments was processed separately. […]

limb mesenchymal cells = test: Alcian blue staining of cartilage nodules in primary limb mesenchymal cultures; conditions: 10 ng/ml, 2 and 4 days, vs untreated cultures
Experimental: as §2

BMP-4: bone morphogenetic protein added to cultures at 10 ng/ml
normalized RLU (pGL3(4X48) reporter gene activity) ([1]; protein added at 10 ng/ml): 4.2
increase in reporter gene activity ([1]; treatment of reporter gene-transfected cells, 10 ng/ml (FIG. 3H)): ~4.5 fold
number of EGFP-expressing (fluorescing) cells [2]: enhanced
cartilage nodule number (alcian blue) (limb mesenchymal cells): dramatic increase in nodule number

Wnt3a
normalized RLU (pGL3(4X48) reporter gene activity) ([1]; co-transfected expression construct): 0.5

B1: Noggin: BMP pathway protein added at 100 ng/ml (protein, UniProt Q13253 28-232, looked up)
Noggin: QHYLHIRPAPSDNLPLVDLIEHPDPIFDPKEKDLNETLLRSLLGGHYDPGFMATSPPEDRPGGGGGAAGGAEDLAELDQLLRQRPSGAMPSEIKGLEFSEGLAQGKKQRLSKKLRRKLQMWLWSQTFCPVLYAWNDLGSRFWPRYVKVGSCFSKRSCSVPEGMVCKPSKSVHLTVLRWRCQRRGGQRCGWIPIQYPIISECKCSC
normalized RLU (pGL3(4X48) reporter gene activity) ([1]; protein added at 100 ng/ml): 0.3
